From patent US20230121086A1, “RORgT INHIBITOR, PREPARATION METHOD THEREOF AND USE THEREOF” (SUNSHINE LAKE PHARMA CO., LTD., priority 2020, published 2023)

What follows are molecules tested against T1, RORγt (Homo sapiens, UniProt P51449) (assay: Fluorescence resonance energy transfer (FRET) test, inhibitory activity of RORγt). Conditions: not given.
T1 construct: […]
T1 sequence (P51449 269-508 limits assumed): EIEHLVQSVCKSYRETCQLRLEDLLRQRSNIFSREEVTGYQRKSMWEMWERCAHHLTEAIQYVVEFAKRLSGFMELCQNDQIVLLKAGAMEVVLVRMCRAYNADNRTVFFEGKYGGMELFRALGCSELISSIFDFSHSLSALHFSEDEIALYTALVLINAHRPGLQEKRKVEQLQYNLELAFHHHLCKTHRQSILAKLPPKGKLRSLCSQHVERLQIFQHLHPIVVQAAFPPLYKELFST
Type: biochemical
`[2H]C([2H])(NC(=O)c1ccc(N2C[C@@H](Oc3ccc(OC(F)(F)F)cn3)C[C@H]2COC(F)F)cc1)c1ccc(S(=O)(=O)CC)cc1` [Example 169, N-(Dideuterium(4-(ethylsulfonyl)phenyl)methyl)-4-((2S,4S)-2-((difluoromethoxy)methyl)-4-((5-(trifluoromethoxy)pyridin-2-yl)oxy)pyrrolidin-1-yl) benzamide] showed an IC50 of 6 nM.

Same assay, conditions: FRET, B-RORγt LBD / Biotin-SRC1; read-out: IC50
`[2H]C([2H])([2H])OC[C@@H]1C[C@H](Oc2ccc(C(F)(F)F)cc2)CN1c1ccc(C(=O)N[C@@H](CC#N)c2ccc(S(=O)(=O)CC)cc2)cc1` [Example 151, N—((S)-2-cyano-1-(4-(ethylsulfonyl)phenyl)ethyl)-4-((2S,4S)-2-((3,3,3-d3-methoxy)methyl)-4-(4-(trifluoromethyl)phenoxy)pyrrolidin-1-yl)benzamide] was tested, and the IC50 was 8.7 nM. Molecule `CCS(=O)(=O)c1ccc([C@H](CC#N)NC(=O)c2ccc(N3C[C@@H](Oc4ccc(-n5cccn5)cc4)C[C@H]3COC(F)F)cc2)cc1` [Example 152, 4-((2S,4S)-4-(4-(1H-pyrazol-1-yl)phenoxy)-2-((difluoromethoxy)methyl)pyrrolidin-1-yl)-N—((S)-2-cyano-1-(4-(ethylsulfonyl)phenyl)ethyl)benzamide] has an IC50 of 13.2 nM. `CCS(=O)(=O)c1ccc([C@H](COC(N)=O)NC(=O)c2ccc(N3C[C@@H](Oc4ccc(Cl)cn4)C[C@H]3COC(F)F)cc2)cc1` [Example 153, (R)-2-(4-((2S,4S)-4-((5-chloropyridin-2-yl)oxy)-2-((difluoromethoxy)methyl)pyrrolidin-1-yl)benzoylamino)-2-(4-(ethylsulfonyl)phenyl)ethyl carbamate] showed an IC50 of 5 nM. With `CCS(=O)(=O)c1ccc([C@H](COC(=O)N(C)C)NC(=O)c2ccc(N3C[C@@H](Oc4ccc(C(F)(F)F)cc4)C[C@H]3COC(F)F)cc2)cc1` [Example 154, (R)-2-(4-((2S,4S)-2-((difluoromethoxy)methyl)-4-(4-(trifluoromethyl)phenoxy)pyrrolidin-1-yl)benzoylamino)-2-(4-(ethylsulfonyl)phenyl)ethyl dimethylcarbamate] the IC50 was 47 nM. `CCS(=O)(=O)c1ccc([C@H](COC(=O)NC)NC(=O)c2ccc(N3C[C@@H](Oc4ccc(OC(F)(F)F)cn4)C[C@H]3COC(F)F)cc2)cc1` [Example 155, (R)-2-(4-((2S,4S)-2-((difluoromethoxy)methyl)-4-((5-(trifluoromethoxy)pyridin-2-yl)oxy)pyrrolidin-1-yl)benzoylamino)-2-(4-(ethylsulfonyl)phenyl)ethyl methylcarbamate] showed an IC50 of 11 nM. `CCS(=O)(=O)c1ccc([C@H](COC(N)=O)NC(=O)c2ccc(N3C[C@@H](Oc4ccc(OC(F)(F)F)cn4)C[C@H]3COC(F)F)cc2)cc1` [Example 156, (R)-2-(4-((2S,4S)-2-((difluoromethoxy)methyl)-4-((5-(trifluoromethoxy)pyridin-2-yl)oxy)pyrrolidin-1-yl)benzoylamino)-2-(4-(ethylsulfonyl)phenyl)ethyl carbamate] was tested, and the IC50 was 3.1 nM. In the case of `CCS(=O)(=O)c1ccc([C@H](CC#N)NC(=O)c2ccc(N3C[C@@H](Oc4ccc(-n5nccn5)cc4)C[C@H]3COC(F)F)cc2)cc1` [Example 157, 4-((2S,4S)-4-(4-(2H-1,2,3-triazol-2-yl)phenoxy)-2-((difluoromethoxy)methyl)pyrrolidin-1-yl)-N—((S)-2-cyano-1-(4-(ethylsulfonyl)phenyl)ethyl)benzamide], the IC50 is reported as 6.9 nM. For `CCS(=O)(=O)c1ccc([C@H](CC#N)NC(=O)c2ccc(N3C[C@@H](Oc4ccc(-n5cccn5)cn4)C[C@H]3COC(F)F)cc2)cc1` [Example 158], the IC50 was 7.4 nM. For `CCS(=O)(=O)c1ccc([C@H](CC#N)NC(=O)c2ccc(N3C[C@@H](Oc4ccc(-n5cc(C)cn5)cc4)C[C@H]3COC(F)F)cc2)cc1` [Example 159, N—((S)-2-cyano-1-(4-(ethylsulfonyl)phenyl)ethyl)-4-((2S,4S)-2-((difluoromethoxy)methyl)-4-(4-(4-methyl-1H-pyrazol-1-yl)phenoxy)pyrrolidin-1-yl) benzamide], the IC50 was 10.2 nM. `CCS(=O)(=O)c1ccc([C@H](CC#N)NC(=O)c2ccc(N3C[C@@H](Oc4ccc(Cl)cn4)C[C@H]3COC(F)F)cc2)cc1` [Example 160, 4-((2S,4S)-4-((5-chloropyridin-2-yl)oxy)-2-((difluoromethoxy)methyl)pyrrolidin-1-yl)-N—((S)-2-cyano-1-(4-(ethylsulfonyl)phenyl)ethyl)benzamide] was tested, and the IC50 was 5.6 nM. `CCS(=O)(=O)c1ccc([C@H](CC#N)NC(=O)c2ccc(N3C[C@@H](Oc4ccc(-n5ccc(F)n5)cc4)C[C@H]3COC(F)F)cc2)cc1` [Example 162, N—((S)-2-cyano-1-(4-(ethylsulfonyl)phenyl)ethyl)-4-((2S,4S)-2-((difluoromethoxy)methyl)-4-(4-(3-fluoro-1H-pyrazol-1-yl)phenoxy)pyrrolidin-1-yl)benzamide] showed an IC50 of 9.9 nM. In the case of `CCS(=O)(=O)c1ccc([C@H](CC#N)NC(=O)c2ccc(N3C[C@@H](Oc4ccc(-n5ccc(C)n5)cc4)C[C@H]3COC(F)F)cc2)cc1` [Example 163, N—((S)-2-cyano-1-(4-(ethylsulfonyl)phenyl)ethyl)-4-((2S,4S)-2-((difluoromethoxy)methyl)-4-(4-(3-methyl-1H-pyrazol-1-yl)phenoxy)pyrrolidin-1-yl) benzamide], the IC50 is reported as 5.1 nM. For `CCS(=O)(=O)c1ccc([C@H](COC(N)=O)NC(=O)c2cnc(N3C[C@@H](Oc4ccc(Cl)cn4)C[C@H]3COC(F)F)c(F)c2)cc1` [Example 164, (R)-2-(6-((2S,4S)-4-((5-chloropyridin-2-yl)oxy)-2-((difluoromethoxy)methyl)pyrrolidin-1-yl)-5-fluoronicotinamido)-2-(4-(ethylsulfonyl)phenyl)ethyl carbamate], the IC50 was 3.1 nM. With `CCS(=O)(=O)c1ccc([C@H](COC(N)=O)NC(=O)c2ccc(N3C[C@@H](Oc4ccc(-n5cccn5)cn4)C[C@H]3COC(F)F)nc2)cc1` [Example 168, (R)-2-(6-((2S,4S)-4-((5-(1H-pyrazol-1-yl)pyridine-2-yl)oxy)-2-((difluoromethoxy)methyl)pyrrolidin-1-yl)nicotinylamino)-2-(4-(ethylsulfonyl)phenyl)ethyl carbamate] the IC50 was 8 nM. `CCS(=O)(=O)c1ccc([C@H](COC(N)=O)NC(=O)c2ccc(N3C[C@@H](Oc4ccc(-n5nccn5)cn4)C[C@H]3COC(F)F)cc2)cc1` [Example 170, (R)-2-(4-((2S,4S)-4-((5-(2H-1,2,3-triazol-2-yl)pyridine-2-yl)oxy)-2-((difluoromethoxy)methyl)pyrrolidin-1-yl)benzoylamino)-2-(4-(ethylsulfonyl)phenyl)ethyl carbamate] gave an IC50 of 9 nM. In the case of `CCS(=O)(=O)c1ccc([C@H](CC(=O)O)NC(=O)c2ccc(N3C[C@@H](Oc4ccc(-n5cccn5)cn4)C[C@H]3COC(F)F)cc2)cc1` [Example 172, (S)-3-(4-((2S,4S)-4-((5-(1H-pyrazol-1-yl)pyridine-2-yl)oxy)-2-((difluoromethoxy)methyl)pyrrolidin-1-yl)benzamido)-3-(4-(ethylsulfonyl)phenyl)propionic Acid], the IC50 is reported as 23.5 nM. `CCS(=O)(=O)c1ccc([C@H](COC(N)=O)NC(=O)c2ccc(N3C[C@@H](Oc4ccc(-n5nccn5)cn4)C[C@H]3COC(F)F)nc2)cc1` [Example 173, (R)-2-(6-((2S,4S)-4-((5-(2H-1,2,3-triazol-2-yl)pyridine-2-yl)oxy)-2-((difluoromethoxy)methyl)pyrrolidin-1-yl)nicotinylamino)-2-(4-(ethylsulfonyl)phenyl)ethyl carbamate] was tested, and the IC50 was 3.8 nM. For `CCS(=O)(=O)c1ccc([C@H](COCC(=O)O)NC(=O)c2ccc(N3C[C@@H](Oc4ccc(-n5cccn5)cn4)C[C@H]3COC(F)F)nc2)cc1` [Example 175, 2-((R)-2-(6-((2S,4S)-4-((5-(1H-pyrazol-1-yl)pyridine-2-yl)oxy)-2-((difluoromethoxy)methyl)pyrrolidin-1-yl)nicotinylamino)-2-(4-(ethylsulfonyl)phenyl)ethoxy)acetic Acid], the IC50 was 39.2 nM. `CCS(=O)(=O)c1ccc([C@H](COC(N)=O)NC(=O)c2ccc(N3C[C@@H](Oc4ccc(OC(F)(F)F)cn4)C[C@H]3CF)nc2)cc1` [Example 176, (R)-2-(4-(Ethylsulfonyl)phenyl)-2-(6-((2S,4S)-2-(fluoromethyl)-4-((5-(trifluoromethoxy)pyridin-2-yl)oxy)pyrrolidin-1-yl)nicotinamido)ethyl carbamate] was tested, and the IC50 was 7.3 nM. In the case of `CCS(=O)(=O)c1ccc([C@H](COC(N)=O)NC(=O)c2cnc(N3CCCC3c3cccc(F)c3)nc2)cc1` (stereo partly drawn) [Example 177, (2R)-2-(4-(Ethylsulfonyl)phenyl)-2-(2-(2-(3-fluorophenyl)pyrrolidin-1-yl)pyrimidine-5-carboxamido)ethyl carbamate], the IC50 is reported as 27.4 nM. In the case of `CCS(=O)(=O)c1ccc([C@H](CC(=O)O)NC(=O)c2cnc(N3CCCC3c3cccc(F)c3)nc2)cc1` (stereo partly drawn) [Example 178, (3S)-3-(4-(Ethylsulfonyl)phenyl)-3-(2-(2-(3-fluorophenyl)pyrrolidin-1-yl)pyrimidine-5-carboxamido)propionic Acid], the IC50 is reported as 46.2 nM. `CCS(=O)(=O)c1ccc([C@H](COC(N)=O)NC(=O)c2cnc(N3CC(F)(F)CC3c3cccc(F)c3)nc2)cc1` (stereo partly drawn) [Example 179, (2R)-2-(2-(4,4-difluoro-2-(3-fluorophenyl)pyrrolidin-1-yl)pyrimidine-5-carboxamido)-2-(4-(ethylsulfonyl)phenyl)ethyl carbamate] was tested, and the IC50 was 9.4 nM. For `NC(=O)OCC(C(=O)Nc1ccc(C(O)(C(F)(F)F)C(F)(F)F)cc1)c1ccc(S(=O)(=O)CC2CC2)cc1` (stereo not drawn) [Example 182, 2-(4-((cyclopropylmethyl)sulfonyl)phenyl)-3-((4-(1,1,1,3,3,3-hexafluoro hydroxypropan-2-yl)phenyl)amino)-3-oxopropyl carbamate], the IC50 was 55.8 nM.
